Test results taken from ChEMBL document CHEMBL1151284, “Antimycobacterial scalarane-based sesterterpenes from the Red Sea sponge Hyrtios erecta” (2005).

Tested on: Mycobacterium tuberculosis
Assay: Antimycobacterial activity against Mycobacterium tuberculosis H37Rv ATCC 27294 at 6.25 uM by microplate alamar blue assay
Assay type: functional

Compound: CC1(C)CCC[C@]2(C)[C@H]3C[C@@H](O)[C@]4(C)[C@H]5COC(=O)C5=CC[C@H]4[C@]3(C)CC[C@@H]12
- inhibition at 6.25 µM: 16%

Compound: CC(=O)O[C@H]1C[C@H]2[C@]3(C)CC[C@H]4C(C)(C)CCC[C@]4(C)[C@H]3C[C@@H](O)[C@]2(C)[C@H]2OC(=O)C=C12
- inhibition at 6.25 µM: 40%

Compound: CC(=O)O[C@H]1CC[C@]2(C)[C@H]3C[C@@H](O)[C@]4(C)C5=C(CC[C@H]4[C@]3(C)CC[C@H]2C1(C)C)COC5=O
- inhibition at 6.25 µM: 13%

Compound: CC(=O)O[C@H]1C[C@H]2[C@]3(C)CC[C@H]4C(C)(C)CCC[C@]4(C)[C@H]3C[C@@H](O)[C@]2(C)C2=C1COC2=O [SESTERSTATIN 7]
- inhibition at 6.25 µM: 63%
